Assay results taken from ChEMBL document CHEMBL4811315, “Design, synthesis and biochemical evaluation of novel carbonic anhydrase inhibitors triggered by structural knowledge on hCA VII” (Bioorg Med Chem, 2021).

The molecules below were run against Carbonic anhydrase 9 (Homo sapiens, UniProt Q16790).
Description: Inhibition of full length human CA9 incubated for 15 mins by phenol red dye based stopped flow CO2 hydration assay
Work on `NS(=O)(=O)c1ccc(C(=O)N2CCN(C(=O)c3ccc[nH]3)CC2)cc1` yielded a Ki of 277 nM. With `NS(=O)(=O)c1ccc(C(=O)N2CCN(C(=O)c3cc4ccccc4[nH]3)CC2)cc1` the Ki was 9.2 nM. `Cc1ccoc1C(=O)N1CCN(C(=O)c2ccc(S(N)(=O)=O)cc2)CC1` showed a Ki of 3050 nM. `NS(=O)(=O)c1ccc(C(=O)N2CCN(C(=O)c3sccc3Br)CC2)cc1` showed a Ki of 125 nM. `NS(=O)(=O)c1ccc(C(=O)N2CCN(C(=O)c3ccc4ccccc4c3)CC2)cc1` gave a Ki of 2990 nM. For `NS(=O)(=O)c1ccc(C(=O)N2CCN(C(=O)c3cccs3)CC2)cc1`, the Ki was 3280 nM. `NS(=O)(=O)c1ccc(C(=O)N2CCN(C(=O)c3ccc(Cl)s3)CC2)cc1` showed a Ki of 382 nM. Molecule `NS(=O)(=O)c1ccc(C(=O)N2CCN(C(=O)c3ccc([N+](=O)[O-])s3)CC2)cc1` has a Ki of 171 nM. `Cc1ccsc1C(=O)N1CCN(C(=O)c2ccc(S(N)(=O)=O)cc2)CC1` showed a Ki of 2920 nM. Molecule `NS(=O)(=O)c1ccc(C(=O)N2CCN(C(=O)c3cc4ccccc4o3)CC2)cc1` has a Ki of 2940 nM. Work on `NS(=O)(=O)c1ccc(C(=O)N2CCN(C(=O)c3ccc([N+](=O)[O-])o3)CC2)cc1` yielded a Ki of 976 nM. With `NS(=O)(=O)c1ccc(C(=O)N2CCN(C(=O)c3ccco3)CC2)cc1` the Ki was 3170 nM. With `NS(=O)(=O)c1ccc(C(=O)N2CCN(C(=O)c3cc4ccccc4s3)CC2)cc1` the Ki was 97.9 nM.
